Data set [1] is classed as in vitro ADME. From the text:
A formulation with one enhancer, Trichoderma reesei hydrophobin HFBII (isolation see […]., Aro, […]. and […]. 1997, Differential expression of the vegetative and spore-bound hydrophobins of Tricoderma reesei, Cloning and characterization of the hfb2 gene. Eur. J. […] As ethanol is a potential solvent for substances poorly soluble in water and prevents from microbiological growth, a better or a similar permeability is desirable. […] With this caffeine-concentration the solution was nearly saturated. This was intended to achieve a faster steady state according to the highest concentration gradient possible. Phosphate buffered saline (PBS) was prepared with a pH of 7.4. Both pH and osmolality of PBS simulated in the Franz diffusion cell's acceptor chamber the physiological conditions of blood (a systemic buffer system). The water used for the formulations and PBS was freshly produced, double distilled and filtered. Healthy nails for the permeability experiments were obtained from the Institute of Anatomy of the University of Basel and from the Institute of Anatomy of the University of Freiburg, Germany. […] The concentrations of the samples were measured with UV-spectrophotometry. Flux and permeation coefficients were calculated with the values after 48 hours, as in this time a steady state was obtained.

Data set [2] has as its system cells in the skin model (EST-1000). It counts as cell-based. Conditions: human, 48 h, 1 %. Here is the method:
Cytotoxicity of the test samples on the skin culture was determined by MTT-assay according to the instructions of the skin model provider. The viability of the cells in the skin model was not influenced by the solvents (50% ethanol, 0.002% SDS) as compared to cultures treated with PBS only. A viability of about 50% of that of the control cultures was observed when 1% caffeine or 1% caffeine/10 μg hydrophobin (SC3 or HFB II, respectively) were applied on the skin culture, showing that hydrophobin itself was not cytotoxic at a concentration of 200 μg/ml. The barrier function of the skin model is probably not influenced profoundly by the reduced viability of the cells, since the upper layer keratinocytes comprises non living cells.

Data set [3] is described as follows: Nail penetration study with Terbinafine (example 1a). The settings on record: reference solution: 10% (w/v) Terbinafine in 60% (v/v) ethanol/water, no hydrophobin; average of 3. It counts as in vitro ADME. Here is the method:
Healthy nails for the permeability experiments were obtained from the Institute of Anatomy of the University of Basel and from the Institute of Anatomy of the University of Freiburg, Germany. Franz Diffusion Cells (SES GmbH—Analysesysteme, Bechenheim, Germany) with a diffusion area of 0.785 cm^2 were used. […] Subsequently, they were mounted in the diffusion cells in an appropriate manner. The acceptor chamber below the nail was filled with 5 ml PBS. The formulation (400 μl) was applied onto the nail. In order to keep the temperature in the system constant, the glass cells were tempered by a water jacket kept at 32°. The acceptor chambers were stirred with a magnetic stirrer at 400 rpm. The openings for the formulations and the extensions for taking samples were covered with Parafilm (film comprising paraffin wax and polyethene; American National Can Company, USA). A sample of 400 μl was taken from each cell twice a day and replaced with the same amount of PBS warmed to 32° C. […] The concentrations of the samples were measured with UV-spectrophotometry. Flux and permeation coefficients were calculated with the values after 48 hours, as in this time a steady state was obtained. […]

Data set [4] is classed as in vitro ADME, human. Here is the method:
The penetration of caffeine through the skin was measured using a human epidermal skin model (EST-1000, Cell Systems, St. Katharinen, Germany). The in vitro model for human skin consists of a robust multilayer three-dimensional cell culture, which has been grown for 14 days and has skin-like properties. The cellular structure of EST-1000 resembles that of the natural epidermis showing a base membrane, proliferating keratinocytes and stratum corneum with an intact barrier function. The tissues were provided in cell culture inserts with a polycarbonate membrane with 0.63 cm^2 surface area and 0.4 μm pore size. The membranes were covered completely by the cells and show a matte white, dry surface after complete differentiation. The inserts were handled easily by the use of a sterile forceps. Upon delivery, the skin inserts were equilibrated by placing each insert into a well of a 6-well cell culture dish containing 1 ml of maintenance medium (provided by Cell Systems). After 4-12 hours of equilibration the test substance was applied on the dry surface of the skin model. Penetration of substances applied onto the surface of the skin culture through the skin model was measured by sampling the medium surrounding the insert and detecting the concentration of the test substance, here caffeine. […] Caffeine was purchased from Sigma and applied in a concentration of 10 mg/ml (1% w/v). […]

Take `C[S+](C)[O-]` [DMSO, dimethylsulfoxide]: the “Enhancement factor (EF) in 20% (v/v) EtOH/water” value in data set [1] worked out at 3.25.
Turning to `Cn1c(=O)c2c(ncn2C)n(C)c1=O` [caffeine], in data set [2], the “Viability relative to control cultures (MTT)” value is listed as “about 50%”.
In the case of `CN(C/C=C/C#CC(C)(C)C)Cc1cccc2ccccc12` [Terbinafine], the “Cumulated amount of Terbinafine penetrated through nail after 10 days” value in data set [3] is given as roughly 12 mg/cm2.

B1: SC3: class I hydrophobin of 112 amino acids from Schizophyllum commune, accession P16933 (protein, UniProt P16933 25-136, looked up)
Class I hydrophobin SC3: GGHPGTTTPPVTTTVTVTTPPSTTTIAAGGTCTTGSLSCCNQVQSASSSPVTALLGLLGIVLSDLNVLVGISCSPLTVIGVGGSGCSAQTVCCENTQFNGLINIGCTPINIL
For the molecule B1, the “Enhancement of penetration of caffeine (1% w/v) through in vitro model of human skin” value in data set [4] is on record as “up to 21.5%”.
